The text below walks through data of US20200131476A1, “Differentiation Of Immunocytes Using Pluripotent Stem Cells” (Korea Center For Disease Control And Prevention, priority 2017, published 2020).

This test has as its system pluripotent stem cells. Briefly: Differentiation of pluripotent stem cells into CD34+CD45+ hematopoietic stem cells (FACS). Format: cell-based. From the text:
1) Pluripotent stem cells were adapted to a matrigel-coated dish and a mTeSR1 medium for 3 weeks, and then other colonies except for 5 colonies in 35 pi dish were removed by pipetting. This is a process for providing space for the proliferation of differentiated cells in the future. At this time, when vitronectin is used as a coating material or mTeSR8 is used as a medium, the differentiation of hematopoietic stem cells or macrophages can be induced.
2) The medium for culturing the stem cells used in 1) above was replaced with APEL medium. […] The differentiation into mesodermal cells was induced rapidly by treating with BMP4 at a high concentration (100 ng/ml) for 2 days and then sequentially at a low concentration (20 ng/ml) for 2 days.
In addition, the efficiency of differentiation of hematopoietic stem cells can be increased by treating with the CDDO methyl ester compound together with BMP4 for 4 days. […]
CD34+ and CD45+ are markers specifically expressed in hematopoietic stem cells. […] In order to confirm this, the amount of expression of the markers specifically expressed in hematopoietic stem cells was measured.
The differentiated cells were monolayered and reacted with the antibodies CD34 and CD45 labeled with fluorescence. […]

On to `COC(=O)[C@]12CCC(C)(C)C[C@H]1[C@H]1C(=O)C=C3[C@@]4(C)C=C(C#N)C(=O)C(C)(C)[C@@H]4CC[C@@]3(C)[C@]1(C)CC2` [CDDO methyl ester, 2-cyano-3,12-dioxooleana-1,9(11)-dien-28-oic acid methyl ester], for which, for the setting “50 nM added together with BMP4 for 4 days, versus no CDDO methyl ester, FIG. 4”, the “efficiency of differentiation of hematopoietic stem cells, increase” value is “about 3 times”. Moreover, the “yield of hematopoietic stem cells” value (further treating with the compound in the BMP4 treatment step) was “improved by three times or more”.
